Data reported in patent EP0823908B1, “PYRIDO[2,3-d]PYRIMIDINES FOR INHIBITING PROTEIN TYROSINE KINASE MEDIATED [sequence] PROLIFERATION” (Warner-Lambert Company LLC, priority 1995, dated 1996).
Like-named read-outs stand apart in the source and are kept apart here.

Columns and labels:
Assay type in all cases: biochemical
C-src kinase = target: T1, C-src kinase (Homo sapiens, UniProt P12931); test: C-src kinase assay (poly GluTyr substrate); conditions: for inhibition at 50 µM: read-out: C-src TK % Inhibition at 50 µM
T1 construct: made in house; host or cells: baculovirus infected insect cells
Description: V-src or C-src kinase is purified from baculovirus infected insect cell lysates using an antipeptide monoclonal antibody directed against the N-terminal 2-17 amino acids. The antibody, covalently linked to 0.65-µm latex beads, is added to a suspension of insect cell lysis buffer comprised of 150 mM NaCl, 50 mM Tris pH 7.5, 1 mM DTT, 1% NP-40, 2 mM EGTA, 1 mM sodium vanadate, 1 mM PMSF, 1 µg/mL each of leupeptin, pepstatin, and aprotinin. […] At the end of the lysate incubation, the beads are rinsed 3 times in lysis buffer, resuspended in lysis buffer containing 10% glycerol, and frozen. These latex beads are thawed, rinsed 3 times in assay buffer which is comprised of 40 mM tris pH 7.5, 5 mM MgCl2, and suspended in the same buffer. In a Millipore 96-well plate with a 0.65 µm polyvinylidine membrane bottom are added the reaction components: 10-µL V-src or C-src beads, 10 µL of 2.5 mg/mL poly GluTyr substrate, 5 µM ATP containing 0.2 µCi labeled ^32P-ATP, 5µL DMSO containing inhibitors or as a solvent control, and buffer to make the final volume 125 µL. The reaction is started at room temperature by addition of the ATP and quenched 10 minutes later by the addition of 125 µL of 30% TCA, 0.1 M sodium pyrophosphate for 5 minutes on ice. […] The filters are punched, counted in a liquid scintillation counter, and the data examined for inhibitory activity in comparison to a known inhibitor such as erbstatin.

[1] = target: T2, human FGF-1 (flg) receptor tyrosine kinase (Homo sapiens, UniProt P11362); test: FGF receptor tyrosine kinase assay (32P incorporation into glutamate-tyrosine co-polymer); conditions: for inhibition at 50 µM: read-out: FGFr-TK % Inhibition at 50 µM
T2 construct: amplify a fragment of DNA that codes for the intracellular tyrosine kinase domain; made in house; host or cells: SF9 insect cells (baculovirus)
Description: (§1) Full length cDNAs for the mouse PDGF-β and human FGF-1 (flg) receptor tyrosine kinases were obtained from J. Escobedo and prepared as described in J. Biol. Chem., 262:1482-1487 […], and PCR primers were designed to amplify a fragment of DNA that codes for the intracellular tyrosine kinase domain. The fragment was melded into a baculovirus vector, cotransfected with AcMNPV DNA, and the recombinant virus isolated. SF9 insect cells were infected with the virus to overexpress the protein, and the cell lysate was used for the assay. The assay was performed in 96-well plates (100 µL/incubation/well), and conditions were optimized to measure the incorporation of ^32P from γ^32P-ATP into a glutamate-tyrosine co-polymer substrate. Briefly, to each well was added 82.5 µL of incubation buffer containing 25 mM Hepes (pH 7.0), 150 mM NaCl, 0.1% Triton X-100, 0.2 mM PMSF, 0.2 mM Na3VO4, 10 mM MnCl2, and 750 µg/mL of Poly (4:1) glutamate-tyrosine followed by 2.5 µL of inhibitor and 5µL of enzyme lysate (7.5 µg/µL FGF-TK or 6.0 µg/µL PDGF-TK) to initiate the reaction. Following a 10 minute incubation at 25°C, 10 µL of γ^32P-ATP (0.4 µCi plus 50 µM ATP) was added to each well and samples were incubated for an additional 10 minutes at 25°C. The reaction was terminated by the addition of 100 µL of 30% trichloroacetic acid (TCA) containing 20 mM sodium pyrophosphate and precipitation of material onto glass fiber filter mats (Wallac). […] Nonspecific activity was defined as radioactivity retained on the filters following incubation of samples with buffer alone (no enzyme). Specific enzymatic activity was defined as total activity (enzyme plus buffer) minus nonspecific activity.

[2] = target: T3, mouse PDGF-β receptor tyrosine kinase (Mus musculus, UniProt P05622); test: PDGF receptor tyrosine kinase assay (32P incorporation into glutamate-tyrosine co-polymer); conditions: for IC50: read-out: PDGFr-TK IC50; for inhibition at 50 µM: read-out: PDGFr-TK % Inhibition at 50 µM
T3 construct: amplify a fragment of DNA that codes for the intracellular tyrosine kinase domain; made in house; host or cells: SF9 insect cells (baculovirus)
Description: as §1

[3] = target: T4, Human EGF receptor tyrosine kinase (Homo sapiens, UniProt P00533); test: EGF receptor tyrosine kinase enzyme assay (substrate peptide phosphorylation); conditions: for IC50: read-out: EGF-FL IC50; for inhibition at 50 µM: read-out: EGF-FL % Inhibition at 50 µM
T4 construct: Human EGF receptor tyrosine kinase was isolated from A431 epidermoid carcinoma cells; endogenous in cells; host or cells: A431 epidermoid carcinoma cells
Description: Human EGF receptor tyrosine kinase was isolated from A431 epidermoid carcinoma cells by the following methods. Cells were grown in roller bottles in 50% Dulbecco's Modified Eagle medium and 50% HAM F-12 nutrient media (Gibco) containing 10% fetal calf serum. Approximately 10^9 cells were lysed in two volumes of buffer containing 20 mM 2-(4N-[2-hydroxymethyl]-piperazin-1-yl)ethanesulfonic acid, pH 7.4, 5 mM ethylene glycol bis(2-aminoethyl ether) N,N,N',N'-tetraacetic acid, 1% Triton X-100, 10% glycerol, 0.1 mM sodium orthovanadate, 5 mM sodium fluoride, 4 mM pyrophosphate, 4 mM benzamide, 1 mM dithiothreitol, 80 µg/mL aprotinin, 40 µg/mL leupeptin, and 1 mM phenylmethylsulfonyl fluoride. […] Contaminating proteins were washed from the resin with 1 M NaCl in equilibration buffer, and the enzyme was eluted with 0.5 M N-acetyl-1-D-glucosamine in equilibration buffer.
The reaction was terminated by the addition of 2 mL of 75 mM phosphoric acid and passed through a 2.5-cm phosphocellulose filter disc to bind the peptide. The filter was washed 5 times with 75 mM phosphoric acid and placed in a vial along with 5 mL of scintillation fluid (Ready gel Heckman).

T3 sequence (P05622 599-961 limits assumed): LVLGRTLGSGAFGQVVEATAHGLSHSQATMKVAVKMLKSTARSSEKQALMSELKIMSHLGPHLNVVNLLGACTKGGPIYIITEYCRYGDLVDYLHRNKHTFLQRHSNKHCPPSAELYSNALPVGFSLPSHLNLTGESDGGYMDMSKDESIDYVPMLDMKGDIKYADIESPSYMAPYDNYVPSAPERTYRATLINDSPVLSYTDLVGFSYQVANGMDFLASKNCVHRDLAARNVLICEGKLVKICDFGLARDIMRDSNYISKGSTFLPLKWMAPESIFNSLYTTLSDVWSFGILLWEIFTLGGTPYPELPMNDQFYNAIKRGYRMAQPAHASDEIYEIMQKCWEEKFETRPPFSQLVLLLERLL
T4 sequence (P00533 25-1210): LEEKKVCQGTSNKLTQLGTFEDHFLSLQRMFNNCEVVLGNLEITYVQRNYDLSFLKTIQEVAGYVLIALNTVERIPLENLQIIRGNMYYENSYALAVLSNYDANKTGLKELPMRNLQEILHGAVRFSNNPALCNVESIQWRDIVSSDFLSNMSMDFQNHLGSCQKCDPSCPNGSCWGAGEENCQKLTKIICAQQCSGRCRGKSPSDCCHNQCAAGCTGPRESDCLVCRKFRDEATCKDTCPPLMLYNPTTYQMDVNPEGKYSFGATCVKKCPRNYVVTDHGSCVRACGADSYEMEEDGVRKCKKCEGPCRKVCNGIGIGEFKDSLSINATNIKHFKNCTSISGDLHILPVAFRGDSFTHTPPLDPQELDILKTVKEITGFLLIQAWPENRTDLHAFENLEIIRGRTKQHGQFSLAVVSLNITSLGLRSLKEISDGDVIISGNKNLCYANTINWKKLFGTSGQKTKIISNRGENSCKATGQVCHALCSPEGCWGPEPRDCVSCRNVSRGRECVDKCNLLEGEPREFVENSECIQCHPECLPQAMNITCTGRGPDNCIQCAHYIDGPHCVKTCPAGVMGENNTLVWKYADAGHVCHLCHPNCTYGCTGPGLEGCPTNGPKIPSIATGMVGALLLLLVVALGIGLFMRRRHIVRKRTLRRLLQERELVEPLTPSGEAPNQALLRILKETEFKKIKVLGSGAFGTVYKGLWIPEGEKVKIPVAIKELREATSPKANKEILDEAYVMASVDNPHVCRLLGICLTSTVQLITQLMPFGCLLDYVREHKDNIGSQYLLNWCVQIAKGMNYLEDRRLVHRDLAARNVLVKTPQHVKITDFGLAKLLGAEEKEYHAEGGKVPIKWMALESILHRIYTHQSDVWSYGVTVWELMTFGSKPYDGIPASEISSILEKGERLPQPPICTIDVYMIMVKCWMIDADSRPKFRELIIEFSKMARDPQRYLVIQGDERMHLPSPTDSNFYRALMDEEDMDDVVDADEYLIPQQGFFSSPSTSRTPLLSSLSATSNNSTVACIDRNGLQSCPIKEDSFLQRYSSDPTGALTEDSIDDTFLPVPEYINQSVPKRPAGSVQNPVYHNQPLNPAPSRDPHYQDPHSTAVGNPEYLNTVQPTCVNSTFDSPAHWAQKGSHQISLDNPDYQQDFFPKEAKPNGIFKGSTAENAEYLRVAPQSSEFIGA
T2 sequence (P11362 478-767 limits assumed): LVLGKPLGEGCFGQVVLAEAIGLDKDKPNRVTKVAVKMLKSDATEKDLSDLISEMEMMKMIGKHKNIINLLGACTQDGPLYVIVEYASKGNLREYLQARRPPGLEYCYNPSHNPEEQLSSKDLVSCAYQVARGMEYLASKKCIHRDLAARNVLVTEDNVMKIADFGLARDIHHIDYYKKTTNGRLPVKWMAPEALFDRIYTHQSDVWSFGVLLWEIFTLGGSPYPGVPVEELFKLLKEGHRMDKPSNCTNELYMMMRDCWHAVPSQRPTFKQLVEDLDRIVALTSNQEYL
T1 sequence (P12931 whole entry): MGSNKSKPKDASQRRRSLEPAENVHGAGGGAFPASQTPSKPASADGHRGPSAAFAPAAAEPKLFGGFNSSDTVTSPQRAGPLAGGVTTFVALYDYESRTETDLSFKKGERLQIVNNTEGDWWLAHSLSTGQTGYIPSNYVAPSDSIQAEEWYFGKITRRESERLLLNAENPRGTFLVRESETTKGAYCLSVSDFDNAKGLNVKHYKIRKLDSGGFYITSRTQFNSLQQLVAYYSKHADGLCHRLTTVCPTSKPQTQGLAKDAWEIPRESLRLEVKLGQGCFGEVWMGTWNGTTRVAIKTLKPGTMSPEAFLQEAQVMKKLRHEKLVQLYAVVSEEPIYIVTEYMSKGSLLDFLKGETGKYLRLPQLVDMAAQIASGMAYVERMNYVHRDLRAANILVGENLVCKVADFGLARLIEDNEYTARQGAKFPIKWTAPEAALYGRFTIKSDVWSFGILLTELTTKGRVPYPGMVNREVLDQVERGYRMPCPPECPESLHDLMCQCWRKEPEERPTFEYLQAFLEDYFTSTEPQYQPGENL

Compound | IC50 (C-src kinase; read-out: C-src TK IC50) | IC50 ([1]; read-out: FGFr-TK IC50) | IC50 [2] | IC50 [3] | inhibition at 50 µM (C-src kinase) | also measured
Nc1ncc2cc(-c3c(Cl)cccc3Cl)c(=O)n(Cc3c(Cl)cccc3Cl)c2n1 [Example 111, 2-Amino-8-(2,6-dichlorobenzyl)-6-(2,6-dichlorophenyl)-8H-pyrido[2,3-d]pyrimidin-7-one] | 0.041 µM | 1.5 µM | 3.15 µM | 1.4 µM | – | –
Cn1c(=O)c(-c2c(Cl)cccc2Cl)cc2cnc(Nc3cccc(C(=O)O)c3)nc21 [Example 90, 3-[6-(2,6-Dichlorophenyl)-8-methyl-7-oxo-7,8-dihydro-pyrido[2,3-d]pyrimidin-2-ylamino]-benzoic acid] | 0.006 µM | 0.11 µM | 0.14 µM | 0.15 µM | – | –
CN1CCN(CCCCCNc2ncc3cc(-c4c(Cl)cccc4Cl)c(=O)n(C)c3n2)CC1 [Example 81, 6-(2,6-Dichlorophenyl)-8-methyl-2-[5-(4-methylpiperazin-1-yl)-pentylamino]-8H-pyrido[2,3-d]pyrimdin-7-one] | – | – | 0.743 µM | 4.5 µM | 94% | –
CCn1c(=O)c(-c2c(Cl)cccc2Cl)cc2cnc(Nc3ccc(OC)cc3)nc21 [Example 74, 6-(2,6-Dichlorophenyl)-8-ethyl-2-(4-methoxyphenylamino) -8H-pyrido[2,3-d]pyrimidin-7-one] | 0.079 µM | 0.277 µM | 0.76 µM | 0.13 µM | – | –
CN(C)CCCn1c(=O)c(-c2c(Cl)cccc2Cl)cc2cnc(N)nc21 [Example 34, 2-Amino-6-(2,6-dichlorophenyl)-8-(3-dimethylaminopropyl)-8H-pyrido[2,3-d]pyrimidin-7-one] | 0.037 µM | 1.2 µM | 2.73 µM | 2.9 µM | – | –
CCn1c(=O)c(-c2c(Cl)cccc2Cl)cc2cnc(N)nc21 [Example 30, 2-Amino-6-(2,6-dichlorophenyl)-8-ethyl-pyrido[2,3-d]-pyrimidin-7(8H)-one] | 0.155 µM | – | 0.98 µM | – | – | inhibition at 50 µM [3]: 77%
CC(C)(C)OC(=O)Cn1c(=O)c(-c2c(Cl)cccc2Cl)cc2cnc(N)nc21 [Example 36, [2-Amino-6-(2,6-dichlorophenyl)-7-oxo-7H-pyrido[2,3-d]-pyrimidin-8-yl]-acetic acid tert-butyl ester] | 0.56 µM | 1.45 µM | 7.53 µM | – | – | –
CCOC(=O)c1cccc(Nc2ncc3cc(-c4c(Cl)cccc4Cl)c(=O)n(C)c3n2)c1 [Example 89, 3-[6-(2,6-Dichlorophenyl)-8-methyl-7-oxo-7,8-dihydro-pyrido[2,3-d]pyrimidin-2-ylamino]-benzoic acid, ethyl ester] | 0.014 µM | 1.49 µM | 1.48 µM | – | – | –
Nc1ncc2cc(-c3c(Cl)cccc3Cl)c(=O)n(CC(=O)O)c2n1 [Example 107, [2-Amino-6-(2,6-dichlorophenyl)-7-oxo-7H-pyrido[2,3-d]-pyrimidin-8-yl]-acetic acid] | – | 9.24 µM | – | – | 52% | inhibition at 50 µM [2]: 43%
Nc1ncc2cc(-c3c(Cl)cccc3Cl)c(N)nc2n1 [Example 10, 2,7-Diamino-6-(2,6-dichlorophenyl)-pyrido[2,3-d]-pyrimidine] | – | 3 µM | 21.2 µM | – | – | IC50 (C-src kinase): 0.225 µM
Nc1ncc2cc(-c3c(Cl)cccc3Cl)c(=O)n(Cc3ccncc3)c2n1 [Example 113, 2-Amino-6-(2,6-dichlorophenyl)-8-pyridin-4-ylmethyl-8H-pyrido[2,3-d]pyrimidin-7-one] | – | – | 1.76 µM | 6.7 µM | 87% | –
Cn1c(=O)c(-c2c(Cl)cccc2Cl)cc2cnc(NC3CCCCC3)nc21 [Example 60, 2-Cyclohexylamino-6-(2,6-dichlorophenyl)-8-methyl-8H-pyrido[2,3-d]pyrimidin-7-one] | 1.64 µM | 6.52 µM | 9.38 µM | – | – | –
Cn1c(=O)c(-c2c(Cl)cccc2Cl)cc2cnc(NC(=O)CCC(=O)O)nc21 [Example 16] | 3.1 µM | 6.49 µM | 5.45 µM | – | – | –
Cn1c(=O)c(-c2c(Cl)cccc2Cl)cc2cnc(NCCCN3CCOCC3)nc21 [Example 47, 6-(2,6-Dichlorophenyl)-8-methyl-2-(3-morpholin-4-yl-propylamino)-8H-pyrido[2,3-d]pyrimidin-7-one] | – | – | 5.98 µM | – | 36% | inhibition at 50 µM [3]: 70%
COc1ccc(Nc2ncc3cc(-c4c(Cl)cccc4Cl)c(=O)n(C)c3n2)cc1 [Example 64, 6-(2,6-Dichlorophenyl)-2-(4-methoxyphenylamino)-8-methyl-8H-pyrido[2,3-d]pyrimidin-7-one] | – | 0.403 µM | 0.546 µM | 0.065 µM | – | –
CCn1c(=O)c(-c2cc(C)cc(C)c2)cc2cnc(Nc3ccccc3)nc21 [Example 118, 6-(3,5-Dimethylphenyl)-8-ethyl-2-phenylamino-8H-pyrido[2,3-d]pyrimidin-7-one] | – | – | – | – | 0% | inhibition at 50 µM [1]: 29%; inhibition at 50 µM [2]: 12%
Cn1c(=O)c(-c2c(Cl)cccc2Cl)cc2cnc(Nc3cccnc3)nc21 [Example 79, 6-(2,6-Dichlorophenyl)-8-methyl-2-(pyridin-3-ylamino)-8H-pyrido[2,3-d]pyrimidin-7-one] | 0.044 µM | – | – | 0.11 µM | – | IC50 [1]: 0.172 µM
CC(=O)Nc1ncc2cc(-c3c(Cl)cccc3Cl)c(=O)n(C)c2n1 [Example 15, N-[6-(2,6-Dichlorophenyl)-8-methyl-7-oxo-7,8-dihydro-pyrido[2,3-d]pyrimidin-2-yl]acetamide] | 4.22 µM | 5.79 µM | 5.18 µM | – | – | –
COc1cccc(Nc2ncc3cc(-c4c(Cl)cccc4Cl)c(=O)n(C)c3n2)c1 [Example 72, 6-(2,6-Dichlorophenyl)-2-(3-methoxyphenylamino)-8-methyl-8H-pyrido[2,3-d]pyrimidin-7-one] | 0.052 µM | – | – | 0.033 µM | – | –
Cn1c(=O)c(-c2c(Cl)cccc2Cl)cc2cnc(Nc3cccc(O)c3)nc21 [Example 87, 6-(2,6-Dichlorophenyl)-2-(3-hydroxyphenylamino)-8-methyl-8H-pyrido[2,3-d]pyrimidin-7-one] | – | – | 0.35 µM | 0.14 µM | – | –
CCn1c(=O)c(-c2ccncc2)cc2cnc(Nc3ccccc3)nc21 [Example 120, 8-Ethyl-2-phenylamino-6-pyridin-4-yl-8H-pyrido[2,3-d]-pyriminin-7-one] | – | – | 1.83 µM | – | 29% | inhibition at 50 µM [1]: 2%
CCn1c(=O)c(-c2ccc(-c3ccccc3)cc2)cc2cnc(Nc3ccccc3)nc21 [Example 124, 6-Biphenyl-4-yl-8-ethyl-2-phenylamino-8H-pyrido[2,3-d]-pyrimidin-7-one] | – | – | – | – | 11% | inhibition at 50 µM [1]: 15%; inhibition at 50 µM [2]: 38%
